Activity calls are given as the source filed them. No cut-off for these calls is given here.
Experiments:
SU-DHL-6 [1] = experiment: Induction of apoptosis in human SU-DHL-6 cells assessed as viable cells at 1 uM incubated for 48 hrs by Annexin V-FITC/PI staining based flow cytometric analysis (reference value: 89.81 %); assay type: functional; details: read-out: Activity
SU-DHL-6 [2] = experiment: Induction of apoptosis in human SU-DHL-6 cells assessed as early apoptotic cells at 1 uM incubated for 48 hrs by Annexin V-FITC/PI staining based flow cytometric analysis (reference value: 5.02 %); assay type: functional
SU-DHL-6 [3] = experiment: Induction of apoptosis in human SU-DHL-6 cells assessed as necrotic cells at 10 uM incubated for 48 hrs by Annexin V-FITC/PI staining based flow cytometric analysis (reference value: 1.05 %); assay type: functional
SU-DHL-6 [4] = experiment: Inhibition of AKT phosphorylation in human SU-DHL-6 cells preincubated for 12 hrs followed by compound washout and measured after 24 hrs by Western blot analysis; assay type: cell-based
SU-DHL-6 [5] = experiment: Antiproliferative activity against human SU-DHL-6 cells assessed as inhibition of cell viability preincubated for 12 hrs followed by compound washout and measured after 60 hrs by MTT assay; assay type: functional, cell-based
SU-DHL-6 [6] = experiment: Antitumor activity against human SU-DHL-6 cells xenografted in male nude mouse assessed as tumor growth inhibition at 5 mg/kg/day, po administered for 14 days relative to control; assay type: functional; details: SU-DHL-6, 336 h, time 14 day, read-out: TGI
MCF7 = experiment: Growth inhibition of human MCF7 cells incubated for 72 hrs by MTT assay; assay type: functional
HCT-116 = experiment: Growth inhibition of human HCT-116 cells incubated for 72 hrs by MTT assay; assay type: functional
SU-DHL-6 [7] = experiment: Induction of apoptosis in human SU-DHL-6 cells assessed as necrotic cells at 1 uM incubated for 48 hrs by Annexin V-FITC/PI staining based flow cytometric analysis (reference value: 1.05 %); assay type: functional
SU-DHL-6 [8] = experiment: Induction of apoptosis in human SU-DHL-6 cells assessed as late apoptotic cells at 10 uM incubated for 48 hrs by Annexin V-FITC/PI staining based flow cytometric analysis (reference value: 4.12 %); assay type: functional
[9] = Growth inhibition of PI3Kdelta-overexpressing human Pfeiffer cells incubated for 72 hrs by MTT assay; assay type: functional
Raji = experiment: Growth inhibition of human Raji cells incubated for 72 hrs by MTT assay; assay type: functional
SU-DHL-6 [10] = experiment: Inhibition of AKT phosphorylation in human SU-DHL-6 cells preincubated for 12 hrs followed by compound washout and measured upto 72 hrs by Western blot analysis; assay type: cell-based
SU-DHL-6 [11] = experiment: Induction of apoptosis in human SU-DHL-6 cells assessed as late apoptotic cells at 1 uM incubated for 48 hrs by Annexin V-FITC/PI staining based flow cytometric analysis (reference value: 4.12 %); assay type: functional
SU-DHL-6 [12] = experiment: Induction of apoptosis in human SU-DHL-6 cells assessed as viable cells at 10 uM incubated for 48 hrs by Annexin V-FITC/PI staining based flow cytometric analysis (reference value: 89.81 %); assay type: functional; details: read-out: Activity
SU-DHL-6 [13] = experiment: Induction of apoptosis in human SU-DHL-6 cells assessed as early apoptotic cells at 10 uM incubated for 48 hrs by Annexin V-FITC/PI staining based flow cytometric analysis (reference value: 5.02 %); assay type: functional
[14] = Growth inhibition of PI3Kdelta-overexpressing human SU-DHL-6 cells incubated for 72 hrs by MTT assay; assay type: functional
[15] = biological target: T1, Phosphatidylinositol 4,5-bisphosphate 3-kinase catalytic subunit delta isoform (Homo sapiens, UniProt O00329); experiment: Inhibition of recombinant PI3Kdelta (unknown origin) using PIP2:3PS as substrate preincubated for 20 mins followed by ATP addition and measured after 1 hrs by ADP-Glo reagent based assay
T1 sequence (O00329 whole entry): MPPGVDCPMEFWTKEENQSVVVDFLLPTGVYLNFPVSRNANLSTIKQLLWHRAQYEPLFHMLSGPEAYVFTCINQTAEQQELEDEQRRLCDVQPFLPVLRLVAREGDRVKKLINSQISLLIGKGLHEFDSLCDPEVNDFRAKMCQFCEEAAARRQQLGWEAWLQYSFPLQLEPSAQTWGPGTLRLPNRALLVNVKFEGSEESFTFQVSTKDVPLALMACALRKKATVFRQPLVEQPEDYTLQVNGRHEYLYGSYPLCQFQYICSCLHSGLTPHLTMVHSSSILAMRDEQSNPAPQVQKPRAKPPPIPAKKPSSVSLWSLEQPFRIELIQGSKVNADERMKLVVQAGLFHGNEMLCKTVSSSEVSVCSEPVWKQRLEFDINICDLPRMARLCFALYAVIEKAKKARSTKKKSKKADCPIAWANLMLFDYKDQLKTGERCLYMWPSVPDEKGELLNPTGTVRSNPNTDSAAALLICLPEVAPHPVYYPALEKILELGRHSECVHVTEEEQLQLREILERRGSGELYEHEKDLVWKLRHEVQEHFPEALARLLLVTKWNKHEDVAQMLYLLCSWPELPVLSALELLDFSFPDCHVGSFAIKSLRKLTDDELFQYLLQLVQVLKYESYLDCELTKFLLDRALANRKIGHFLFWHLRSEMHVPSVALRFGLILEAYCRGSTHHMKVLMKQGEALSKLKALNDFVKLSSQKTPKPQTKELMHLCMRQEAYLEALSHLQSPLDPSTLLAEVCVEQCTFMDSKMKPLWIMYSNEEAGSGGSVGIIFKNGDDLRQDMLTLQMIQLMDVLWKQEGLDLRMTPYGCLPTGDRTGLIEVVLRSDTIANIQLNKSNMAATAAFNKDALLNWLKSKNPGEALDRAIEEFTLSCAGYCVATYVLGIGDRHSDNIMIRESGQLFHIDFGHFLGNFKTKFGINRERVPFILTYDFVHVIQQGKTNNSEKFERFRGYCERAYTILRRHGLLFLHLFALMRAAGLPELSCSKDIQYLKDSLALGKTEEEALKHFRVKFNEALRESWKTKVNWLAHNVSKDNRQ

[16] = biological target: Phosphatidylinositol 4,5-bisphosphate 3-kinase catalytic subunit gamma isoform (Homo sapiens, UniProt P48736); experiment: Inhibition of recombinant PI3Kgamma (unknown origin) using PIP2:3PS as substrate preincubated for 20 mins followed by ATP addition and measured after 1 hrs by ADP-Glo reagent based assay
[17] = Selectivity index, ratio of IC50 for inhibition of recombinant PI3Kalpha (unknown origin) using PIP2:3PS as substrate to IC50 for inhibition of recombinant PI3Kdelta (unknown origin) using PIP2:3PS as substrate
[18] = Selectivity index, ratio of IC50 for inhibition of recombinant PI3Kbeta (unknown origin) using PIP2:3PS as substrate to IC50 for inhibition of recombinant PI3Kdelta (unknown origin) using PIP2:3PS as substrate
[19] = Selectivity index, ratio of IC50 for inhibition of recombinant PI3Kgamma (unknown origin) using PIP2:3PS as substrate to IC50 for inhibition of recombinant PI3Kdelta (unknown origin) using PIP2:3PS as substrate
[20] = biological target: Phosphatidylinositol 4,5-bisphosphate 3-kinase catalytic subunit alpha isoform (Homo sapiens, UniProt P42336); experiment: Inhibition of recombinant PI3Kalpha (unknown origin) using PIP2:3PS as substrate preincubated for 20 mins followed by ATP addition and measured after 1 hrs by ADP-Glo reagent based assay
[21] = Chemical reactivity of the compound with N-Boc-Lysine assessed as half-life at 1 uM by HPLC analysis; assay type: physicochemical; details: incubation with N-Boc-Lysine
[22] = biological target: Phosphatidylinositol 4,5-bisphosphate 3-kinase catalytic subunit beta isoform (Homo sapiens, UniProt P42338); experiment: Inhibition of recombinant PI3Kbeta (unknown origin) using PIP2:3PS as substrate preincubated for 20 mins followed by ATP addition and measured after 1 hrs by ADP-Glo reagent based assay
[23] = Selectivity ratio of GI50 for human HCT-116 cells to GI50 for PI3Kdelta overexpressing human SU-DHL-6; assay type: functional
SU-DHL-6 [24] = experiment: Inhibition of AKT phosphorylation in human SU-DHL-6 cells incubated for 24 hrs by Western blot analysis; assay type: cell-based; details: dose 10-1000 nM
[25] = Stability of compound in water/acetonitrile solution incubated for 24 hrs by HPLC analysis; assay type: physicochemical; details: buffer
[26] = Stability of compound in PBS at pH 7.4 incubated for 24 hrs at 37 degreeC by HPLC analysis; assay type: physicochemical; details: buffer, pH 7.4, 24 h
[27] = biological target: T2, Phosphatidylinositol 4,5-bisphosphate 3-kinase catalytic subunit delta isoform (Homo sapiens) (UniProt O00329); experiment: Potency index, ratio of idelalisib IC50 to test compound IC50 for inhibition of recombinant PI3Kdelta (unknown origin) using PIP2:3PS as substrate preincubated for 20 mins followed by ATP addition and measured after 1 hrs by ADP-Glo reagent based assay; details: time 80.0 min
T2 sequence (whole entry): T1 sequence (O00329 whole entry)

SU-DHL-6 [28] = experiment: Potency index, ratio of idelalisib GI50 to test compound GI50 for growth inhibition of PI3Kdelta-overexpressing human SU-DHL-6 cells incubated for 72 hrs by MTT assay; assay type: functional
[29] = biological target: T2, Phosphatidylinositol 4,5-bisphosphate 3-kinase catalytic subunit delta isoform (Homo sapiens); experiment: Covalent inhibition of PI3Kdelta (unknown origin) using PIP2:3PS as substrate assessed as second order rate constant (Kinact/Ki ratio) incubated upto 180 mins in presence of ATP by ADP-Glo reagent based assay

Sequence of Phosphatidylinositol 4,5-bisphosphate 3-kinase catalytic subunit beta isoform (P42338 whole entry, canonical isoform): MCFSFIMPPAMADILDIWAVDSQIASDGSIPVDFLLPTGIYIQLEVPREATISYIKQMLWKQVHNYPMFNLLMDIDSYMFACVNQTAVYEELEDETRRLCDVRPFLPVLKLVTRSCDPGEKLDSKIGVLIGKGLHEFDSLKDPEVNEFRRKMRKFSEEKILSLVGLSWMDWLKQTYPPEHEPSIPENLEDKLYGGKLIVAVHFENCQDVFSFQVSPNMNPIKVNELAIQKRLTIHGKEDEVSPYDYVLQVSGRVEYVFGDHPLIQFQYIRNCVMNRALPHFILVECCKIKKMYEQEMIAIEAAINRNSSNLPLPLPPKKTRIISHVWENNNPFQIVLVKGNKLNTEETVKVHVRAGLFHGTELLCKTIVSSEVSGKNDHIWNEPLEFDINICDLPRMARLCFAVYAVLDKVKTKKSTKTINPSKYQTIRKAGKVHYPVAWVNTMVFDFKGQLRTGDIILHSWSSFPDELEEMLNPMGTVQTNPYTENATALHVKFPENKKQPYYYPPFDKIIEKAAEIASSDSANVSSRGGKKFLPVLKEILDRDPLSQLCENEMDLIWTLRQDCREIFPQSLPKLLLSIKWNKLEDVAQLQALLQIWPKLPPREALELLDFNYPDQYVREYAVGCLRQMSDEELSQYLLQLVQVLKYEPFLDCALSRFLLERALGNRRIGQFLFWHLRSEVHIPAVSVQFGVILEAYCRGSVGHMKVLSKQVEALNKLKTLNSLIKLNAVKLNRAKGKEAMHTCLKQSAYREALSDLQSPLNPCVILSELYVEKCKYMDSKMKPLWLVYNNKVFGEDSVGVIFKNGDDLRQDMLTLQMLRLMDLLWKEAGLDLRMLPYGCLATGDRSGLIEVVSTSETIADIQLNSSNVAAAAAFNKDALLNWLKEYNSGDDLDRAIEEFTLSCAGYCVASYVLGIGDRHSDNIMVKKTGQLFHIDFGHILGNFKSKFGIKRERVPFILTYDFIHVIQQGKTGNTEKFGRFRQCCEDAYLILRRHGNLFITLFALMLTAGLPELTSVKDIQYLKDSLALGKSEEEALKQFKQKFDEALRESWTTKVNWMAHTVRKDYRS
Sequence of Phosphatidylinositol 4,5-bisphosphate 3-kinase catalytic subunit alpha isoform (P42336 whole entry, canonical isoform): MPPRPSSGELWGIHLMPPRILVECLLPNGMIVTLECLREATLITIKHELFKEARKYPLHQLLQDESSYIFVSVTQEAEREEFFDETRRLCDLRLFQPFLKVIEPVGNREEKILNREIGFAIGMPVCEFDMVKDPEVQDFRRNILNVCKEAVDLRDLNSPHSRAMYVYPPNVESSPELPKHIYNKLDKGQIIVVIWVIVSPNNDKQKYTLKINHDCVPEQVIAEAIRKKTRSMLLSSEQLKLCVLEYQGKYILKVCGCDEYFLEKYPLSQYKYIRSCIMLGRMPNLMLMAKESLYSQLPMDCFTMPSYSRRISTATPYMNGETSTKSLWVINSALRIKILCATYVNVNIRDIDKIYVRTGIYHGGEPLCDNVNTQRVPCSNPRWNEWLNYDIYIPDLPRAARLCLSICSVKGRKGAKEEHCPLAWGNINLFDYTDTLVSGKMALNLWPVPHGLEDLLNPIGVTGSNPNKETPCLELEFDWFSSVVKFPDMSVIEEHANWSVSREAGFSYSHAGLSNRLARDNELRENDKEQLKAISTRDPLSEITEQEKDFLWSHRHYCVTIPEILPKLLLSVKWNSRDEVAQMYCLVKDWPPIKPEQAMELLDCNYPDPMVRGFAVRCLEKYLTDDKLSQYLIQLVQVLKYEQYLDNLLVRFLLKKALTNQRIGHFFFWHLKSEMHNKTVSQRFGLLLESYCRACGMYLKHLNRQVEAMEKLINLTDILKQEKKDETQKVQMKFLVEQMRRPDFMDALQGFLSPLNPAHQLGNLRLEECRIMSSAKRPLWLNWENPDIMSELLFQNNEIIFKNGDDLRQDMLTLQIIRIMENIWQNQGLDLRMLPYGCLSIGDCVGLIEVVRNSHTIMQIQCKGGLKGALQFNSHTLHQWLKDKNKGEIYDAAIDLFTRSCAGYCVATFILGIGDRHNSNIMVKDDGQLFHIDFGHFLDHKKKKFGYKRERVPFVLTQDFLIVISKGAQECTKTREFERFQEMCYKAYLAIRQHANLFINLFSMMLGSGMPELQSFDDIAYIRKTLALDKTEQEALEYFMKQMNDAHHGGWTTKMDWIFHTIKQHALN
Sequence of Phosphatidylinositol 4,5-bisphosphate 3-kinase catalytic subunit gamma isoform (P48736 whole entry, canonical isoform): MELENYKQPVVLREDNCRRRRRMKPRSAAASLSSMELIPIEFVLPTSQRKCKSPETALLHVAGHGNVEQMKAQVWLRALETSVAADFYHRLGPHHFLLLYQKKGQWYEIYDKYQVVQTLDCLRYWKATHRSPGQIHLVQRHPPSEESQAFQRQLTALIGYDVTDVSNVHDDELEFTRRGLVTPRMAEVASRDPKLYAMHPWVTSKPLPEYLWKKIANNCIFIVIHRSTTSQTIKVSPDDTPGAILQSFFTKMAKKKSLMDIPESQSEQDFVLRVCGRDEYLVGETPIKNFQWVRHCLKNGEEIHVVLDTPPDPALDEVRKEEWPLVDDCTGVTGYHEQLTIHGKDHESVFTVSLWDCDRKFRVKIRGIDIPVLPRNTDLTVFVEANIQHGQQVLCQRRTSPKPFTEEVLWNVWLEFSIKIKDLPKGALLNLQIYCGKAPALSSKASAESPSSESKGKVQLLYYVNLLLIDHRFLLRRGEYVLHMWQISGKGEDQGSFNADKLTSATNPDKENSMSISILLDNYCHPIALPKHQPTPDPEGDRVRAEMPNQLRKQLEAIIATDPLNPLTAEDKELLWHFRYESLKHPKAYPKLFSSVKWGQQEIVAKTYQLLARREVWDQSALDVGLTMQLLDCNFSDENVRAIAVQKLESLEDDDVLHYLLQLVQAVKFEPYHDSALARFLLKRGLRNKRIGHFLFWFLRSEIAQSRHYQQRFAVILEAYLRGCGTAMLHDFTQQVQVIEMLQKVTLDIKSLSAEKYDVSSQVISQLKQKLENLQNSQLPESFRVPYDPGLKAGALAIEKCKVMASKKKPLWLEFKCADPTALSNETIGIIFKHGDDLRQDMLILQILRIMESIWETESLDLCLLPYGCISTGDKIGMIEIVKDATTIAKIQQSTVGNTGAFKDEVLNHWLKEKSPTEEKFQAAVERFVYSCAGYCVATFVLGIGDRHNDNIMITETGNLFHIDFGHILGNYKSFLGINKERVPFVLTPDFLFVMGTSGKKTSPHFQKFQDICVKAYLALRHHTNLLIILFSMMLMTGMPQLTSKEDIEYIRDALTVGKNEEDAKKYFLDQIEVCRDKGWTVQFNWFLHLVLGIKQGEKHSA

| SMILES | GI50 (MCF7) | GI50 (HCT-116) | GI50 (Raji) | IC50 [15] | IC50 [16] | Ratio IC50 [17] | Ratio IC50 [18] | Ratio IC50 [19] | IC50 [20] | half-life at 1 µM [21] | IC50 [22] | inhibition (SU-DHL-6 [4]) | Activity (SU-DHL-6 [5]) | GI50 [9] | inhibition (SU-DHL-6 [10]) | GI50 [14] | other results |
| --- | --- | --- | --- | --- | --- | --- | --- | --- | --- | --- | --- | --- | --- | --- | --- | --- | --- |
| COc1ncc(-c2ccc3ncnc(N[C@H]4CCN(C(=O)C5CCOCC5)C4)c3c2)cc1C(=O)Oc1ccc(F)cc1 | > 10000 nM | 1520 nM | 7590 nM | 2.24 nM | 208 nM | 11 | 13 | 92 | 25.6 nM | 1.12 h | 30 nM | Active | Active | 130 nM | Active | 3 nM |  |
| COc1ncc(-c2cc(-c3ncc(CN4CCN(C(C)C)CC4)o3)c3cn[nH]c3c2)cc1C(=O)Oc1ccc(F)cc1 |  |  |  |  |  |  |  |  |  |  |  |  |  |  |  |  | Ratio [29]: 3.75 10^4/M/s |

Now from value to compound, other results behind:

| GI50 (MCF7) | GI50 (HCT-116) | GI50 (Raji) | IC50 [15] | IC50 [16] | Ratio IC50 [17] | Ratio IC50 [18] | Ratio IC50 [19] | IC50 [20] | half-life at 1 µM [21] | IC50 [22] | SMILES | inhibition (SU-DHL-6 [4]) | Activity (SU-DHL-6 [5]) | GI50 [9] | inhibition (SU-DHL-6 [10]) | GI50 [14] | other results |
| --- | --- | --- | --- | --- | --- | --- | --- | --- | --- | --- | --- | --- | --- | --- | --- | --- | --- |
| > 10000 nM | > 10000 nM | > 10000 nM |  |  |  |  |  |  |  |  | CC[C@H](Nc1ncnc2[nH]cnc12)c1nc2cccc(F)c2c(=O)n1-c1ccccc1 [IDELALISIB] | inactive | inactive | 8330 nM | inactive | 200 nM | viability at 1 µM (SU-DHL-6 [1]): 87%; Activity (SU-DHL-6 [2]): 6.76%; Activity (SU-DHL-6 [3]): 0.6%; inhibition in vivo at 5 mg/kg/day (SU-DHL-6 [6]): 50%; Activity (SU-DHL-6 [7]): 0.8%; Activity (SU-DHL-6 [8]): 6.75%; Activity (SU-DHL-6 [11]): 3.46%; viability at 10 µM (SU-DHL-6 [12]): 79.4%; Activity (SU-DHL-6 [13]): 13.29% |
| > 10000 nM | 1900 nM | 8200 nM | 0.53 nM | 656 nM | 124 | 292 | > 1000 | 66 nM | 2.4 h | 155 nM | COc1ncc(-c2ccc3ncnc(N[C@H]4CCN(C(=O)C5CCOCC5)C4)c3c2)cc1C(=O)Oc1ccccc1 | Active | Active | 195 nM | Active | 3 nM | RatioGI50 [23]: 2500; inhibition (SU-DHL-6 [24]): Dose-Dependent Effect; Stability [25]: Stable; Stability [26]: Stable; Ratio IC50 [27]: 10; RatioGI50 (SU-DHL-6 [28]): ~10 |
| 6330 nM | 2140 nM | 6610 nM | 4.45 nM | 63.7 nM | 3 |  | 14 | 14.1 nM | 0.917 h | 241 nM | COc1ncc(-c2ccc3ncnc(N[C@H]4CCN(C(=O)C5CCOCC5)C4)c3n2)cc1C(=O)Oc1ccc(F)cc1 | Active | Active | 97 nM | Active | 4 nM |  |
